Data taken from ChEMBL document CHEMBL6134911, “Broad Target Screening Reveals Abundance of FKBP12-Based Molecular Glues in Focused Libraries” (J Med Chem, 2025).
pKd: −log10 of the molar value. Blank lines part the entries; values can stand above or below the compound they belong to. Activity calls are given as the source filed them. No cut-off for these calls is given here.

Legend:
[1] = Competitive molecular glue activity at fluorescein maleimide-labeled FKBP12 C22V/E108C mutant (unknown origin)/6 His-tagged BRD4 BD2 domain (unknown origin) assessed as ternary complex formation by measuring dissociation constant incubated for 30 mins by fluorescence polarization analysis; design: species or system Homo sapiens
Homo sapiens [2] = species on record: Homo sapiens; experiment: Competitive molecular glue activity at Strep-tagged EGFP-FKBP12 (unknown origin) extracted from Escherichia coli BL21 gold cells/6 His-tagged PTPRN (unknown origin) assessed as ternary complex formation incubated for 30 mins by HTRF assay
Homo sapiens [3] = species on record: Homo sapiens; experiment: Competitive molecular glue activity at fluorescein maleimide-labeled FKBP12 C22V/E108C mutant (unknown origin)/6 His-tagged PTPRN (unknown origin) assessed as ternary complex formation incubated for 30 mins in presence of FKBP12 ligand 18(S)-Me 29 by fluorescence polarization analysis
Homo sapiens [4] = species on record: Homo sapiens; experiment: Competitive molecular glue activity at fluorescein maleimide-labeled FKBP12 C22V/E108C mutant (unknown origin)/6 His-tagged PTPRN (unknown origin) assessed as ternary complex formation incubated for 30 mins by fluorescence polarization analysis
Homo sapiens [5] = species on record: Homo sapiens; experiment: Competitive molecular glue activity at fluorescein maleimide-labeled FKBP12 C22V/E108C mutant (unknown origin)/6 His-tagged BRD4 BD2 domain (unknown origin) assessed as ternary complex formation incubated for 30 mins in presence of FKBP12 ligand 18(S)-Me 29 by fluorescence polarization analysis
Homo sapiens [6] = species on record: Homo sapiens; experiment: Competitive molecular glue activity at fluorescein maleimide-labeled FKBP12 C22V/E108C mutant (unknown origin)/6 His-tagged BRD4 BD1 domain (unknown origin) assessed as ternary complex formation incubated for 30 mins by fluorescence polarization analysis
Homo sapiens [7] = species on record: Homo sapiens; experiment: Competitive molecular glue activity at fluorescein maleimide-labeled FKBP12 C22V/E108C mutant (unknown origin)/6 His-tagged BRD4 BD2 domain (unknown origin) assessed as ternary complex formation incubated for 30 mins in presence of JQ1 by fluorescence polarization analysis
[8] = target: Bromodomain-containing protein 4 (Homo sapiens) (UniProt O60885); experiment: Displacement of fluorescent JQ1 from BRD4 BD2 (unknown origin) incubated for 30 mins by fluorescence polarization analysis
Homo sapiens [9] = species on record: Homo sapiens; experiment: Competitive molecular glue activity at fluorescein maleimide-labeled FKBP12 C22V/E108C mutant (unknown origin)/6 His-tagged MBP-STAT4 (unknown origin) assessed as ternary complex formation incubated for 30 mins by fluorescence polarization analysis
Homo sapiens [10] = species on record: Homo sapiens; experiment: Competitive molecular glue activity at Strep-tagged EGFP-FKBP12 (unknown origin) extracted from Escherichia coli BL21 gold cells/6 His-tagged MBP-STAT4 (unknown origin) assessed as ternary complex formation incubated for 30 mins by HTRF assay
Homo sapiens [11] = species on record: Homo sapiens; experiment: Competitive molecular glue activity at fluorescein maleimide-labeled FKBP12 C22V/E108C mutant (unknown origin)/6 His-tagged MBP-STAT4 (unknown origin) assessed as ternary complex formation incubated for 30 mins in presence of FKBP12 ligand 18(S)-Me 29 by fluorescence polarization analysis
Homo sapiens [12] = species on record: Homo sapiens; experiment: Competitive molecular glue activity at Strep-tagged EGFP-FKBP12 (unknown origin) extracted from Escherichia coli BL21 gold cells/6 His-tagged BRD4 BD2 domain (unknown origin) assessed as ternary complex formation incubated for 30 mins by HTRF assay
Homo sapiens [13] = species on record: Homo sapiens; experiment: Competitive molecular glue activity at fluorescein maleimide-labeled FKBP12 C22V/E108C mutant (unknown origin)/6 His-tagged BRD4 BD2 domain (unknown origin) assessed as ternary complex formation incubated for 30 mins by fluorescence polarization analysis

pKd [1]: 4.02
Compound: C=C[C@@H]1CN(Cc2cn(-c3ccc4[nH]ncc4c3)nn2)C(=O)[C@@H]2CCC[C@H]1N2S(=O)(=O)c1cc(Cl)cc(Cl)c1

pKd [1]: 3.84
Compound: C=C[C@@H]1CN(Cc2cn(-c3ccc(OC(C)C)cc3)nn2)C(=O)[C@@H]2CCC[C@H]1N2S(=O)(=O)c1cc(Cl)cc(Cl)c1

pKd [1]: 4.08
Compound: C=C[C@@H]1CN(Cc2cn(-c3ccc(OC)c(Cl)c3)nn2)C(=O)[C@@H]2CCC[C@H]1N2S(=O)(=O)c1cc(Cl)cc(Cl)c1

Activity (Homo sapiens [2]): Dose-dependent-effect
Activity (Homo sapiens [3]): inactive
Activity (Homo sapiens [4]): Dose-dependent-effect
Compound: COc1ccc(CC[C@@H](OC(=O)[C@@H]2CCCCN2S(=O)(=O)c2cc3c(c([N+](=O)[O-])c2)OCC3)c2cccc(CC(=O)O)c2)cc1OC

Activity (Homo sapiens [5]): inactive
Activity (Homo sapiens [6]): inactive
Activity (Homo sapiens [7]): inactive
Activity [8]: inactive
pKd [1]: 4.57
Compound: C=C[C@@H]1CN(Cc2cn(-c3ccc(OC)c(OC)c3)nn2)C(=O)[C@@H]2CCC[C@H]1N2S(=O)(=O)c1cc(Cl)cc(Cl)c1

Activity (Homo sapiens [9]): Dose-dependent-effect
Activity (Homo sapiens [10]): Dose-dependent-effect
Activity (Homo sapiens [11]): inactive
Compound: C=C[C@H]1CN(Cc2ccccn2)C(=O)[C@@H]2CCC[C@H]1N2S(=O)(=O)c1cc(-c2ccccc2)c2nc(-c3ccccc3)sc2c1

pKd [1]: 4.33
Compound: C=C[C@@H]1CN(Cc2cn(-c3ccc(C(C)=O)cc3)nn2)C(=O)[C@@H]2CCC[C@H]1N2S(=O)(=O)c1cc(Cl)cc(Cl)c1

pKd [1]: 4.66
Compound: C=C[C@@H]1CN(Cc2cn(-c3ccc(C(C)=O)c(OC)c3)nn2)C(=O)[C@@H]2CCC[C@H]1N2S(=O)(=O)c1cc(Cl)cc(Cl)c1

pKd [1]: < 3.30
Compound: C=C[C@@H]1CN(Cc2cn(-c3cc(OC)c(OC)c(OC)c3)nn2)C(=O)[C@@H]2CCC[C@H]1N2S(=O)(=O)c1cc(Cl)cc(Cl)c1

Activity (Homo sapiens [5]): inactive
Activity (Homo sapiens [12]): Dose-dependent-effect
Activity (Homo sapiens [13]): Dose-dependent-effect
pKd [1]: 3.40
Compound: C=C[C@@H]1CN(Cc2cn(-c3ccc(OC)cc3)nn2)C(=O)[C@@H]2CCC[C@H]1N2S(=O)(=O)c1cc(Cl)cc(Cl)c1

pKd [1]: 3.94
Compound: C=C[C@@H]1CN(Cc2cn(-c3ccc(N(C)C)cc3)nn2)C(=O)[C@@H]2CCC[C@H]1N2S(=O)(=O)c1cc(Cl)cc(Cl)c1
